Tests used:
[1] = biological target: T1, P2X7 (Homo sapiens (Human), UniProt Q99572); experiment: Radioligand binding, human P2X7-1321N1 cell membranes, tracer tritiated A-804598; conditions: human P2X7-1321N1 membranes; 1 hour at 4° C.; IC50 corrected for tracer concentration and affinity
Description: (§1) On the day of the experiment, cell membrane preparations were made according to standard published methods. […] The compound can be prepared as described in the literature. […] The assay was terminated by filtration (GF/B filters pre-soaked with 0.3% PEI) and washed with washing buffer (Tris-HCl 50 mM). The IC50 generated in the binding assay was corrected for tracer concentration and affinity of the tracer to derive at the affinity (Ki) of the test compounds.

[2] = biological target: T1, P2X7; experiment: P2X7 antagonism in human whole blood (IL-1β release, ELISA); type: cell-based; conditions: IL-1β release in human blood, LPS 30 ng/ml + Bz-ATP 1 mM
Description: Human blood was collected using a blood donor program. […] Cells were incubated for an additional 1.5 hours.

[3] = biological target: T1, P2X7; experiment: Ca2+ flux (FLIPR) in 1321N1 cells expressing recombinant human P2X7 channel; type: cell-based; conditions: 250 μM BzATP, Calcium-4 dye
Description: 1321N1 cells expressing the recombinant human, rat or mouse P2X7 channel was cultured in HyQ DME/(HyClone/Dulbecco's Modified Eagle Medium) high glucose supplemented with 10% Fetal Bovine Serum (FBS) and appropriate selection marker. Cells were seeded at a density of 25000 cells/well (96-well clear bottom black walled plates) in 100 μl volume/well. On the day of the experiment, cell plates were washed with assay buffer, containing (in mM): 130 NaCl, 2 KCl, 1 CaCl2, 1 MgCl2, 10 HEPES, 5 glucose; pH 7.40 and 300 mOs. After the wash, cells were loaded with the Calcium-4 dye (Molecular Device) and incubated in the dark for 60 minutes. Test compounds were prepared at 250× the test concentration in neat DMSO. Intermediate 96-well compound plates were prepared by transferring 1.2 μL of the compound into 300 μL of assay buffer. A further 3× dilution occurred when transferring 50 μL/well of the compound plate to 100 μL/well in the cell plate. Cells were incubated with test compounds and dye for 30 minutes. […] The fluorescence change was measured 180 seconds after adding the agonist.

[4] = biological target: T2, rat P2X7 (Rattus norvegicus (Rat), UniProt Q64663); experiment: Radioligand binding, rat P2X7-1321N1 cell membranes, tracer tritiated A-804598; conditions: rat P2X7-1321N1 membranes; 1 hour at 4° C.; IC50 corrected for tracer concentration and affinity
T2 sequence (Q64663 whole entry): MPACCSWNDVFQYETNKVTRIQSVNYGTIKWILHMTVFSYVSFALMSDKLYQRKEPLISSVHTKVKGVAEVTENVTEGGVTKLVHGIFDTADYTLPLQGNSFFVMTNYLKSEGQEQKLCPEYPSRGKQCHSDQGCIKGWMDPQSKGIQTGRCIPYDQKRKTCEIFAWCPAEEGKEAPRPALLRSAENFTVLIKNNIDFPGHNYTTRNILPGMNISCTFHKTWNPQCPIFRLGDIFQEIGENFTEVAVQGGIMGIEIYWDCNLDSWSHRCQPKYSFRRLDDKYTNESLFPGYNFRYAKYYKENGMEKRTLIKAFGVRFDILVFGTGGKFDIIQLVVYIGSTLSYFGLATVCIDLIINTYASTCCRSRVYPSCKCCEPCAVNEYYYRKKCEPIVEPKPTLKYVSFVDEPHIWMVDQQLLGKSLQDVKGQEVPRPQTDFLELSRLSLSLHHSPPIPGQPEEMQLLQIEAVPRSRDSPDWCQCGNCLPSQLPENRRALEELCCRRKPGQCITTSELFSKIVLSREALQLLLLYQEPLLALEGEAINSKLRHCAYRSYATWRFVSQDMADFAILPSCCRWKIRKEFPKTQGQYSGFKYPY
Description: as §1

[5] = biological target: T2, rat P2X7; experiment: Ca2+ flux (FLIPR) in 1321N1 cells expressing recombinant rat P2X7 channel; type: cell-based; conditions: 250 μM BzATP, Calcium-4 dye
In short: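 1321N1 cells stably expressing P2X7 were loaded with Calcium-4 dye for 60 min in HEPES-buffered saline (pH 7.40, 1 mM CaCl2, 1 mM MgCl2), then preincubated with test compounds for 30 min. Fluorescence change was read 180 s after agonist addition.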

[6] = biological target: T1, P2X7; experiment: P2X7 antagonism in human PBMCs (IL-1β release, ELISA); type: cell-based; conditions: test compound 10 μM, IL-1β release in human PBMCs, LPS 30 ng/ml + Bz-ATP 0.5 mM, read-out: PBMC 10 μM (% control)
Description: Human blood was collected using a blood donor program. […] Cells were incubated for an additional 1.5 hours. […] In Table 2, when the data cell has been left blank, it is intended to mean that the compound was not tested in that assay.

T1 sequence (Q99572 whole entry): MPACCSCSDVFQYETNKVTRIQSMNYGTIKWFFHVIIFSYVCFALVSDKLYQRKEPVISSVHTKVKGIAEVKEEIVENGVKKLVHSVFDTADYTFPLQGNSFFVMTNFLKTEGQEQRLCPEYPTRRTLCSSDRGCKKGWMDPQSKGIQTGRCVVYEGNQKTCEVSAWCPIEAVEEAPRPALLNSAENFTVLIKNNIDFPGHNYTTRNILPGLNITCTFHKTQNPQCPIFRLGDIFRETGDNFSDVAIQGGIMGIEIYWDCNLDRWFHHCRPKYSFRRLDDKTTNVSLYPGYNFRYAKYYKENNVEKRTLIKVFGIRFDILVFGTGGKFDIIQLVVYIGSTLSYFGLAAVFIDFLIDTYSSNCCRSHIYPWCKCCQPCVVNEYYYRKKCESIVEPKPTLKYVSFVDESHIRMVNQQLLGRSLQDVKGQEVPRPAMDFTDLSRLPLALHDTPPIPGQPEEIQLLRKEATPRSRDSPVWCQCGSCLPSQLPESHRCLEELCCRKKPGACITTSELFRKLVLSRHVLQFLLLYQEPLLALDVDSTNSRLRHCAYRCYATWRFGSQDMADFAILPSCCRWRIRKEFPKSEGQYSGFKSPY

Structure (SMILES) | Ki [1] [µM] | IC50 [2] [µM] | IC50 [3] [µM] | Ki [4] [µM] | IC50 [5] [µM] | remaining activity at 10 µM [6] [%]
Cc1nc2c(c(-c3ccn[nH]3)n1)CCN(C(=O)c1cccc(C(F)(F)F)c1Cl)C2 [Example 33, 7-{[2-Chloro-3-(trifluoromethyl)phenyl]carbonyl}-2-methyl-4-(1H-pyrazol-5-yl)-5,6,7,8-tetrahydropyrido[3,4-d]pyrimidine] | 0.0164 | 1.12 | 0.008 | 0.012 | 1.11 | 
Cc1nc2c(c(-c3ccn[nH]3)n1)CCN(C(=O)c1cccc(Cl)c1Cl)C2 [Example 34, 7-[(2,3-Dichlorophenyl)carbonyl]-2-methyl-4-(1H-pyrazol-5-yl)-5,6,7,8-tetrahydropyrido[3,4-d]pyrimidine] | 0.0631 |  | 0.0861 | 0.02 | 2.02 | 
Cc1nc2c(c(-c3[nH]ncc3F)n1)CCN(C(=O)c1cccc(C(F)(F)F)c1Cl)C2 [Example 35, 7-{[2-Chloro-3-(trifluoromethyl)phenyl]carbonyl}-4-(4-fluoro-1H-pyrazol-5-yl)-2-methyl-5,6,7,8-tetrahydropyrido[3,4-d]pyrimidine] | 0.0398 |  | 0.0483 | 0.0126 | 0.269 | 
Cc1nc2c(c(-c3[nH]ncc3F)n1)CCN(C(=O)c1cccc(Cl)c1Cl)C2 [Example 36, 7-[(2,3-Dichlorophenyl)carbonyl]-4-(4-fluoro-1H-pyrazol-5-yl)-2-methyl-5,6,7,8-tetrahydropyrido[3,4-d]pyrimidine] | 0.0794 |  |  | 0.0316 |  | 
Cc1nc2c(c(-c3[nH]ncc3C(F)(F)F)n1)CCN(C(=O)c1cccc(C(F)(F)F)c1Cl)C2 [Example 39, 7-{[2-Chloro-3-(trifluoromethyl)phenyl]carbonyl}-2-methyl-4-[4-(trifluoromethyl)-1H-pyrazol-5-yl]-5,6,7,8-tetrahydropyrido[3,4-d]pyrimidine] | 0.0501 |  | 0.1 | 0.0178 | 0.0251 | 
O=C(c1cccc(C(F)(F)F)c1Cl)N1CCc2c(ncnc2-c2cscn2)C1 [Example 43, 7-{[2-Chloro-3-(trifluoromethyl)phenyl]carbonyl}-4-(1,3-thiazol-4-yl)-5,6,7,8-tetrahydropyrido[3,4-d]pyrimidine] | 0.0501 |  | 0.0158 | 0.01 | 0.159 | 
O=C(c1cccc(Cl)c1Cl)N1CCc2c(ncnc2-n2nccn2)C1 [Example 107, 7-[(2,3-Dichlorophenyl)carbonyl]-4-(2H-1,2,3-triazol-2-yl)-5,6,7,8-tetrahydropyrido[3,4-d]pyrimidine] | 0.0095 | 1.12 | 0.0045 | 0.024 | 2.48 | 
O=C(c1cccc(C(F)(F)F)c1Cl)N1CCc2c(ncnc2-n2nccn2)C1 [Example 108, 7-{[2-Chloro-3-(trifluoromethyl)phenyl]carbonyl}-4-(2H-1,2,3-triazol-2-yl)-5,6,7,8-tetrahydropyrido[3,4-d]pyrimidine] |  |  |  | 0.0079 | 0.0679 | 
O=C(c1cccc(C(F)(F)F)c1Cl)N1CCc2c(ncnc2-n2cnnc2)C1 [Example 109, (4-(4H-1,2,4-triazol-4-yl)-5,6-dihydropyrido[3,4-d]pyrimidin-7(8H)-yl)(2-chloro-3-(trifluoromethyl)phenyl)methanone] | 0.0126 |  | 0.0121 |  | 0.485 | 2.2
O=C(c1cccc(C(F)(F)F)c1F)N1CCc2c(ncnc2-c2ccn[nH]2)C1 [Example 111, (4-(1H-pyrazol-5-yl)-5,6-dihydropyrido[3,4-d]pyrimidin-7(8H)-yl)(2-fluoro-3-(trifluoromethyl)phenyl)methanone] | 0.0501 |  | 0.353 |  | 0.807 | 0.6
O=C(c1cccc(C(F)(F)F)c1Cl)N1CCc2c(ncnc2-c2cccc(F)n2)C1 [Example 130, (2-chloro-3-(trifluoromethyl)phenyl)(4-(6-fluoropyridin-2-yl)-5,6-dihydropyrido[3,4-d]pyrimidin-7(8H)-yl)methanone] | 0.0631 |  | 0.0174 |  | 1.09 | 12.9

— US9096596B2 (Janssen Pharmaceutica NV, priority 2013, dated 2015)
